This passage reports Normal melting temperature results from the NIST ThermoML archive (doi:10.1021/je700179q).

± gives the expanded uncertainty stated by the source.

For the data set the following is noted: Crystal; visual observation.

Take `c1ccc2c(c1)Cc1ccccc1-2` [fluorene]: the Normal melting temperature worked out at 116.00 ± 1 °C.
